Experimental data: ChEMBL document CHEMBL1140000, “Synthetic control of interchromophoric interaction in cationic bis-porphyrins toward efficient DNA photocleavage and singlet oxygen production in aqueous solution” (Bioorg Med Chem, 2007)

Tests used:
Escherichia coli [1] = assay: Photocleavage activity against pUC18 DNA assessed as increase in conversion supercoiled to nicked circular form in presence of 20% DMSO after 30 mins
Escherichia coli [2] = assay: Photocleavage activity against pUC18 DNA assessed as conversion supercoiled to nicked circular form relative to H2pXy-Zn complex
Escherichia coli [3] = assay: Photocleavage activity against pUC18 DNA assessed as conversion supercoiled to nicked circular form relative to H2pXy
Escherichia coli [4] = assay: Photocleavage activity against pUC18 DNA assessed as conversion supercoiled to nicked circular form relative to H2TMPyP
Escherichia coli [5] = assay: Photocleavage activity against pUC18 DNA assessed as conversion supercoiled to nicked circular form relative to H2mXy-Zn complex

| Activity (Escherichia coli [1]) [%] | Activity (Escherichia coli [2]) [%] | Activity (Escherichia coli [3]) [%] | Activity (Escherichia coli [4]) [%] | Activity (Escherichia coli [5]) [%] | SMILES |
| --- | --- | --- | --- | --- | --- |
| 95 | 26 |  |  |  | C[n+]1ccc(-c2c3nc(c(-c4cc[n+](C)cc4)c4ccc([nH]4)c(-c4cc[n+](C)cc4)c4nc(c(-c5ccc(C(=O)NCc6ccc(CNC(=O)c7ccc(-c8c9nc(c(-c%10cc[n+](C)cc%10)c%10ccc([nH]%10)c(-c%10cc[n+](C)cc%10)c%10nc(c(-c%11cc[n+](C)cc%11)c%11ccc8[nH]%11)C=C%10)C=C9)cc7)cc6)cc5)c5ccc2[nH]5)C=C4)C=C3)cc1 |
|  | 6 | 25 | 28 | 12 | C[n+]1ccc(-c2c3nc(c(-c4cc[n+](C)cc4)c4ccc([nH]4)c(-c4cc[n+](C)cc4)c4nc(c(-c5ccc(C(=O)NCc6cccc(CNC(=O)c7ccc(-c8c9nc(c(-c%10cc[n+](C)cc%10)c%10ccc([nH]%10)c(-c%10cc[n+](C)cc%10)c%10nc(c(-c%11cc[n+](C)cc%11)c%11ccc8[nH]%11)C=C%10)C=C9)cc7)c6)cc5)c5ccc2[nH]5)C=C4)C=C3)cc1 |
